For assay [1], the target named is human full length PIK3CA Wild-type (p110α/p85α complex) (Homo sapiens (Human), UniProt P42336). The assay can be described thus: PI3K-Alpha kinase (PIK3CA) activity, wild-type, Transcreener ADP2 FI assay. Conditions: PI3K-α (PIK3CA) wild-type, biochemical. The gist of the method: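 Recombinant full-length p110α/p85α (1-5 nM, wild-type or H1047R) preincubated with compound 1 h at 27° C, then reacted with 25 uM ATP and 50 uM PIP2diC8 or membrane PIP2:PS in pH 7.4 HEPES, 25 mM MgCl2, 5% DMSO (also pH 6.0/6.4 MOPS). Run to ~2.5 uM ADP; Transcreener ADP2 fluorescence converted via ADP calibration for IC50.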
Sequence of human full length PIK3CA Wild-type (p110α/p85α complex) (P42336 whole entry): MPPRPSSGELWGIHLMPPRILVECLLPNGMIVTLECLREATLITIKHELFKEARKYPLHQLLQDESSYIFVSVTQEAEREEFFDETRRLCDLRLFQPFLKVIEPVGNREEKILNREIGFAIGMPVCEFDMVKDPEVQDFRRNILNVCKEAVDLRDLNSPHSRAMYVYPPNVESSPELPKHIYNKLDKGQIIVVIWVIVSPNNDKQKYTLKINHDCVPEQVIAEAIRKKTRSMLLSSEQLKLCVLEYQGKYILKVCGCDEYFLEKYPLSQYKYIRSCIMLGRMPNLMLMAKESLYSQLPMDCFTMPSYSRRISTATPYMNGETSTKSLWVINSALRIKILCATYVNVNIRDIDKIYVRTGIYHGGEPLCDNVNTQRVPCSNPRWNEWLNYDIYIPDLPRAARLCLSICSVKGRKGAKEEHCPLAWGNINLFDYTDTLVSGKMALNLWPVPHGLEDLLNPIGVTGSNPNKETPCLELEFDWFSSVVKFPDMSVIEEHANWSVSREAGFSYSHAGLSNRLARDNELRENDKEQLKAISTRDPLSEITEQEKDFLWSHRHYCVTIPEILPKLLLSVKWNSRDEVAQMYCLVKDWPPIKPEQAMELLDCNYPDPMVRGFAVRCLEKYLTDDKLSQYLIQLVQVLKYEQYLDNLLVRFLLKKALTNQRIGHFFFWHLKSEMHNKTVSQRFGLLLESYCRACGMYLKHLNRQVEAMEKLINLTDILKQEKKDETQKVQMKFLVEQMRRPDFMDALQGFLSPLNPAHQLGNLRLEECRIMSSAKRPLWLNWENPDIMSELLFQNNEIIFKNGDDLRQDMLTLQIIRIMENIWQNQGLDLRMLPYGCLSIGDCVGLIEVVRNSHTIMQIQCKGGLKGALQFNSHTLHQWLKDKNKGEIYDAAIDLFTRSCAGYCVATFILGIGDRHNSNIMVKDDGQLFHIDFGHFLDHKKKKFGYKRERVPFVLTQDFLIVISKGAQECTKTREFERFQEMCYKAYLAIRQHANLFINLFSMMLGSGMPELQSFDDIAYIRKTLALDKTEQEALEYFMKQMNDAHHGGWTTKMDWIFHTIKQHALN
Sequence of human full length PIK3CA Wild-type (p110α/p85α complex) (P27986 whole entry partner): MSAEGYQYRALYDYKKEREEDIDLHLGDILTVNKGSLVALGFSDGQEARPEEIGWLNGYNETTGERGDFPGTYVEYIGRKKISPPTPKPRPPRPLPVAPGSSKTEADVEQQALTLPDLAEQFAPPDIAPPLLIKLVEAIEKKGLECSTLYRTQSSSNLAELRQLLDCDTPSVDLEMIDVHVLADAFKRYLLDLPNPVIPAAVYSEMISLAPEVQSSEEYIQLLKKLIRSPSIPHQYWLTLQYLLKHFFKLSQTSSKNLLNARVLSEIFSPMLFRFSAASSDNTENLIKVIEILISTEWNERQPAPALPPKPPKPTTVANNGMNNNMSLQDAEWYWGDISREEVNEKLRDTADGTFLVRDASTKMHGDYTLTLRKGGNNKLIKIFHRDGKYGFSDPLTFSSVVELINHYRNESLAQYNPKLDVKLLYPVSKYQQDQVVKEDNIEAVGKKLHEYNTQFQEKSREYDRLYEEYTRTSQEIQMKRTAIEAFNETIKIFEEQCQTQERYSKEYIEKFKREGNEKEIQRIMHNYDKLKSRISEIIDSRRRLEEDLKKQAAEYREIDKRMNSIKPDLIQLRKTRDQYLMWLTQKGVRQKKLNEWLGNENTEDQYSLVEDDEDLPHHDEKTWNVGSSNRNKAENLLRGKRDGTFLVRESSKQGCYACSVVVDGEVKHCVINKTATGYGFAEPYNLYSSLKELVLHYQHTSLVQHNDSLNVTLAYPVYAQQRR

Assay [2] concerns the target human full length PIK3CA H1047R mutant (p110α/p85α complex) (Homo sapiens (Human), UniProt P42336, H1047R). In words: PI3K-Alpha kinase (PIK3CA) activity, H1047R mutant, Transcreener ADP2 FI assay. The conditions noted are these: PI3K-α (PIK3CA) H1047R mutant, biochemical. As for the experimental part:
PI3K-Alpha kinase (PIK3CA) activity, wild-type and H1047R mutant and determining IC50 values for inhibitors
Recombinant, catalytically active human full length PIK3KA Wild-type and H1047R mutant were purchased as 1:1 complex of N-terminal 6×his tagged p110<(catalytic) and untagged p85<(regulatory subunit) from EMD Millipore Sigma (cat. no. 14-602M and 14-792M, respectively). The enzyme stocks were diluted to 5× stocks in buffer (20 mM HEPES pH 7.4, 100 mM NaCl, 0.5 mM EGTA, 0.01% triton-x-100) just before use. PIP2diC8 (Avanti Polar Lipids Inc., cat. no. 850185) or phosphoinositol-4,5-bisphosphate with phosphoserine (PIP2:PS) membrane (Thermo Fisher Scientific, cat. no. PV5100) was used as lipid substrates. PIP2diC8 lyophilized powder and PIP2:PS (1:19) membrane stock (1 mM in PIP2) were separately dissolved in milliQ water to a concentration of 250 uM and stored in −20° C. 10 mM stocks of compounds were serially diluted (3×) in neat DMSO and stored in a dessicator at room temperature. 5× compound stocks in 25% DMSO were prepared fresh from neat DMSO stocks. Wild-type (WT) and H1047R mutant protein, along with buffer components (except ATP), were incubated with or without compound at 27° C. for 1h. After incubation, the reaction was initiated by the addition of 5 uL of 125 uM ATP. A typical assay mixture (25 uL) comprised 40 mM HEPES buffer, pH 7.4, 25 mM MgCl2, 0.01% v/v triton-X-100, 5% v/v DMSO, 20 mM NaCl, 1-5 nM wt or H1047R, 25 uM ATP, and 50 uM PTP2diC8 or PTP2 in membrane. The reaction was allowed to proceed until about […] (2.5 uM ADP) after which time, 10 uL of reaction mixture was quenched with 25 uL of transcreener reagent (Transcreener ADP2 FI assay kit, BellBrook labs, Cat. No. 3013). The contents were incubated at rt for 1h and fluorescence was measured using a plate reader (Paradigm, Molecular Devices). The same assay was also run at pH 6.0 or 6.4 using MOPS buffer (Fisher BioReagents, CAS 1132-61-2). A calibration curve was generated under identical buffer conditions with varying ADP amounts. Using that, the observed fluorescence was converted to uM ADP. A plot between [ADP] and log[I] yielded the dose-response curves that enabled the calculation of IC50s.

Some results are limits rather than exact numbers.

Sequence of human full length PIK3CA H1047R mutant (p110α/p85α complex) (P42336 whole entry H1047R): as the sequence (P42336 whole entry) above, with H1047R counted along it
Sequence of human full length PIK3CA H1047R mutant (p110α/p85α complex) (P27986 whole entry partner): as the sequence (P27986 whole entry partner) above

As to `Cc1c(N2Cc3ccc(F)cc3C2)oc2c(C(C)Nc3ccccc3C(=O)O)cc(C(F)(F)F)cc2c1=O` (single isomer, unassigned) [Example 343, 2-[1-[2-(5-Fluoroisoindolin-2-yl)-3-methyl-4-oxo-6-(trifluoromethyl)chromen-8-yl]ethylamino]benzoic acid], the IC50 in assay [1] is 500 to 1000 nM; in assay [2] it was less than 500 nM.

Consider `Cc1c(N2Cc3ccccc3C2)oc2c(C(C)Nc3ccccc3C(=O)O)cc(C(F)(F)F)cc2c1=O` (single isomer, unassigned) [Example 348, 2-[1-[2-Isoindolin-2-yl-3-methyl-4-oxo-6-(trifluoromethyl)chromen-8-yl]ethylamino]benzoic acid], for which the figures for the IC50 in assay [1] and in assay [2] were 500 to 1000 nM and less than 500 nM, respectively.

Take `Cc1cc(C(C)Nc2ccc(F)cc2C(=O)O)c2oc(N3Cc4ccc(F)cc4C3)cc(=O)c2c1` (single isomer, unassigned) [Example 349, 5-Fluoro-2-[1-[2-(5-fluoroisoindolin-2-yl)-6-methyl-4-oxo-chromen-8-yl]ethylamino]benzoic acid]: the IC50 in assay [1] and in assay [2] was less than 500 nM in each case.

With `Cc1cc(C(C)Nc2ccccc2C(=O)O)c2oc(N3Cc4ccccc4C3)cc(=O)c2c1` (single isomer, unassigned) [Example 362, 2-[1-(2-Isoindolin-2-yl-6-methyl-4-oxo-chromen-8-yl)ethylamino]benzoic acid], the IC50 is 500 to 1000 nM in assay [1] and less than 500 nM in assay [2].

For the molecule `Cc1cc(C(C)Nc2ccccc2C(=O)O)c2oc(N3Cc4ccccc4C3)c(C)c(=O)c2c1` (single isomer, unassigned; isomer 1) [Example 265, 2-[1-(2-Isoindolin-2-yl-3,6-dimethyl-4-oxo-chromen-8-yl)ethylamino]benzoic acid, Isomer 1], the results for the IC50 in assay [1] and in assay [2] were 1000 to 5000 nM and less than 500 nM, respectively.

On to `CC(Nc1ccccc1C(=O)O)c1cc(C(F)(F)F)cc2c(=O)cc(N3Cc4ccc(C#N)cc4C3)oc12` (single isomer, unassigned; isomer 2) [Example 338, 2-[1-[2-(5-Cyanoisoindolin-2-yl)-4-oxo-6-(trifluoromethyl)chromen-8-yl]ethylamino]benzoic acid, Isomer 2], for which the IC50 in assay [1] and in assay [2] was less than 500 nM each time.

Take `Cc1cc(C(C)Nc2ccccc2C(=O)O)c2oc(N3C4CCCC3C4)cc(=O)c2c1` (single isomer, unassigned; isomer 2) [Example 425, 2-[1-[2-(6-Azabicyclo[3.1.1]heptan-6-yl)-6-methyl-4-oxo-chromen-8-yl]ethylamino]benzoic acid, Isomer 2]: the figures for the IC50 in assay [1] and in assay [2] were 1000 to 5000 nM and less than 500 nM, respectively.

`Cc1cc(C(C)Nc2ccccc2S(=O)(=O)O)c2oc(N3CCC(C)(C)CC3)cc(=O)c2c1` (centres unmarked) [Example 4, 2-[1-[2-(4,4-Dimethyl-1-piperidyl)-6-methyl-4-oxo-chromen-8-yl]ethylamino]benzenesulfonic acid]: the IC50 in assay [1] and in assay [2] was 1000 to 5000 nM throughout.

`Cc1cc(C(C)Nc2cccc3c2C(=O)NC3)c2oc(N3CCC(C)(C)CC3)cc(=O)c2c1` (centres unmarked) [Example 29, 7-[1-[2-(4,4-Dimethyl-1-piperidyl)-6-methyl-4-oxo-chromen-8-yl]ethylamino]isoindolin-1-one]: the IC50 in assay [1] and in assay [2] was 1000 to 5000 nM throughout.

For `Cc1cc(C(C)Nc2ccccc2S(=O)(=O)C(F)F)c2oc(N3CCC(C)(C)CC3)cc(=O)c2c1` (centres unmarked) [Example 38, 8-[1-[2-(Difluoromethylsulfonyl)anilino]ethyl]-2-(4,4-dimethyl-1-piperidyl)-6-methyl-chromen-4-one], the IC50 in assay [1] and in assay [2] was 500 to 1000 nM in each case.

`Cc1cc(C(C)Nc2ccccc2-c2noc(=O)[nH]2)c2oc(N3CCC(C)(C)CC3)cc(=O)c2c1` (centres unmarked) [Example 45, 3-[2-[1-[2-(4,4-Dimethyl-1-piperidyl)-6-methyl-4-oxo-chromen-8-yl]ethylamino]phenyl]-4H-1,2,4-oxadiazol-5-one]: the IC50 is 1000 to 5000 nM in assay [1] and 500 to 1000 nM in assay [2].

Take `Cc1cc(C(C)Nc2cccc3cc(C(=O)O)sc23)c2oc(N3CCC(C)(C)CC3)cc(=O)c2c1` (centres unmarked) [Example 46, 7-[1-[2-(4,4-Dimethyl-1-piperidyl)-6-methyl-4-oxo-chromen-8-yl]ethylamino]benzothiophene-2-carboxylic acid]: the IC50 in assay [1] was in the range of 1000 to 5000 nM; in assay [2] it was 500 to 1000 nM.

For `Cc1cc(C(C)Nc2ccc(C3CC3)nc2C(=O)O)c2oc(N3CCC(C)(C)CC3)cc(=O)c2c1` (centres unmarked) [Example 50, 6-Cyclopropyl-3-[1-[2-(4,4-dimethyl-1-piperidyl)-6-methyl-4-oxo-chromen-8-yl]ethylamino]pyridine-2-carboxylic acid], the figures for the IC50 in assay [1] and in assay [2] were 1000 to 5000 nM and 500 to 1000 nM, respectively.

For the molecule `CC(Nc1ccccc1C(=O)O)c1cc(C(F)(F)F)cc2c(=O)cc(N3CCC(C)(C)CC3)oc12` (centres unmarked) [Example 57, 2-[1-[2-(4,4-dimethyl-1-piperidyl)-4-oxo-6-(trifluoromethyl)chromen-8-yl]ethylamino]benzoic acid], the IC50 lay in the range of 1000 to 5000 nM in assay [1] and 500 to 1000 nM in assay [2].

On to `Cc1cc(C(C)Nc2ccccc2C(=O)O)c2oc(N3CCC(C(F)(F)F)CC3)cc(=O)c2c1` (centres unmarked) [Example 74, 2-[1-[6-Methyl-4-oxo-2-[4-(trifluoromethyl)-1-piperidyl]chromen-8-yl]ethylamino]benzoic acid], for which the IC50 in assay [1] is 5000 to 10000 nM; in assay [2] it was 500 to 1000 nM.

Take `Cc1cc(C(C)Nc2ccccc2C(=O)O)c2oc(N3CCCC4(CCOCC4)C3)cc(=O)c2c1` (centres unmarked) [Example 76, 2-[1-[6-Methyl-2-(9-oxa-2-azaspiro[5.5]undecan-2-yl)-4-oxo-chromen-8-yl]ethylamino]benzoic acid]: the figures for the IC50 in assay [1] and in assay [2] were 5000 to 10000 nM and 500 to 1000 nM, respectively.

On to `Cc1cc(C(C)Nc2ccccc2C(=O)O)c2oc(N3CCOC(c4ccc(S(C)(=O)=O)cc4)C3)cc(=O)c2c1` (centres unmarked) [Example 85, 2-[1-[6-Methyl-2-[2-(4-methylsulfonylphenyl)morpholin-4-yl]-4-oxo-chromen-8-yl]ethylamino]benzoic acid], for which the IC50 in assay [1] and in assay [2] was 1000 to 5000 nM throughout.

With `Cc1cc(C(C)Nc2ccccc2C(=O)O)c2oc(N3CCC4(CC3)Cn3nc(C(=O)N(C)C)cc3CO4)cc(=O)c2c1` (centres unmarked) [Example 107, 2-[1-[2-[2-(Dimethylcarbamoyl)spiro[4,7-dihydropyrazolo[5,1-c][1,4]oxazine-6,4′-piperidine]-1′-yl]-6-methyl-4-oxo-chromen-8-yl]ethylamino]benzoic acid], the IC50 was 5000 to 10000 nM in assay [1] and 1000 to 5000 nM in assay [2].

Consider `Cc1cc(C(C)Nc2ccccc2C(=O)O)c2oc(N3CCCOCC3)cc(=O)c2c1` (centres unmarked) [Example 151, 2-[1-[6-Methyl-2-(1,4-oxazepan-4-yl)-4-oxo-chromen-8-yl]ethylamino]benzoic acid], for which the values for the IC50 in assay [1] and in assay [2] were 1000 to 5000 nM and 500 to 1000 nM, respectively.

For `Cc1cc([C@@H](C)Nc2ccnnc2C(=O)O)c2oc(N3CCC(C)(C)CC3)cc(=O)c2c1` [Example 251], the IC50 in assay [1] and in assay [2] was 1000 to 5000 nM in each case.

In the case of `Cc1cc(C(C)Nc2ccc(Cl)nc2C(=O)O)c2oc(N3Cc4ccccc4C3)cc(=O)c2c1` (centres unmarked) [Example 296, 6-Chloro-3-[1-(2-isoindolin-2-yl-6-methyl-4-oxo-chromen-8-yl)ethylamino]pyridine-2-carboxylic acid], the IC50 in assay [1] is 1000 to 5000 nM; in assay [2], 500 to 1000 nM.

For the molecule `Cc1cc(C(C)Nc2ccccc2C(=O)O)c2oc(N3CCC(C)(C)CC3)c(C#N)c(=O)c2c1` (centres unmarked) [Example 392, 2-[1-[3-Cyano-2-(4,4-dimethyl-1-piperidyl)-6-methyl-4-oxo-chromen-8-yl]ethylamino]benzoic acid 2,2,2-trifluoroacetic acid], the IC50 in assay [1] and in assay [2] was 500 to 1000 nM throughout.
